Results as given in ChEMBL document CHEMBL2086238, “Identification of ETP-46321, a potent and orally bioavailable PI3K α, δ inhibitor” (Bioorg Med Chem Lett, 2012).
The source made the active and inactive calls. The calls are words filed in the database; no cut-off is given here.

Experiments:
[1] = system: Serine/threonine-protein kinase B-raf (Homo sapiens), P15056 [V600E]; assay: Inhibition of BRAF V600E mutant at 1 uM
[2] = biological target: Insulin-like growth factor 1 receptor (Homo sapiens) (UniProt P08069); assay: Inhibition of IGF1R at 5 uM
[3] = biological target: Hepatocyte growth factor receptor (Homo sapiens) (UniProt P08581); assay: Inhibition of MET at 1 uM
Chain of Hepatocyte growth factor receptor (Homo sapiens) (P08581 whole entry): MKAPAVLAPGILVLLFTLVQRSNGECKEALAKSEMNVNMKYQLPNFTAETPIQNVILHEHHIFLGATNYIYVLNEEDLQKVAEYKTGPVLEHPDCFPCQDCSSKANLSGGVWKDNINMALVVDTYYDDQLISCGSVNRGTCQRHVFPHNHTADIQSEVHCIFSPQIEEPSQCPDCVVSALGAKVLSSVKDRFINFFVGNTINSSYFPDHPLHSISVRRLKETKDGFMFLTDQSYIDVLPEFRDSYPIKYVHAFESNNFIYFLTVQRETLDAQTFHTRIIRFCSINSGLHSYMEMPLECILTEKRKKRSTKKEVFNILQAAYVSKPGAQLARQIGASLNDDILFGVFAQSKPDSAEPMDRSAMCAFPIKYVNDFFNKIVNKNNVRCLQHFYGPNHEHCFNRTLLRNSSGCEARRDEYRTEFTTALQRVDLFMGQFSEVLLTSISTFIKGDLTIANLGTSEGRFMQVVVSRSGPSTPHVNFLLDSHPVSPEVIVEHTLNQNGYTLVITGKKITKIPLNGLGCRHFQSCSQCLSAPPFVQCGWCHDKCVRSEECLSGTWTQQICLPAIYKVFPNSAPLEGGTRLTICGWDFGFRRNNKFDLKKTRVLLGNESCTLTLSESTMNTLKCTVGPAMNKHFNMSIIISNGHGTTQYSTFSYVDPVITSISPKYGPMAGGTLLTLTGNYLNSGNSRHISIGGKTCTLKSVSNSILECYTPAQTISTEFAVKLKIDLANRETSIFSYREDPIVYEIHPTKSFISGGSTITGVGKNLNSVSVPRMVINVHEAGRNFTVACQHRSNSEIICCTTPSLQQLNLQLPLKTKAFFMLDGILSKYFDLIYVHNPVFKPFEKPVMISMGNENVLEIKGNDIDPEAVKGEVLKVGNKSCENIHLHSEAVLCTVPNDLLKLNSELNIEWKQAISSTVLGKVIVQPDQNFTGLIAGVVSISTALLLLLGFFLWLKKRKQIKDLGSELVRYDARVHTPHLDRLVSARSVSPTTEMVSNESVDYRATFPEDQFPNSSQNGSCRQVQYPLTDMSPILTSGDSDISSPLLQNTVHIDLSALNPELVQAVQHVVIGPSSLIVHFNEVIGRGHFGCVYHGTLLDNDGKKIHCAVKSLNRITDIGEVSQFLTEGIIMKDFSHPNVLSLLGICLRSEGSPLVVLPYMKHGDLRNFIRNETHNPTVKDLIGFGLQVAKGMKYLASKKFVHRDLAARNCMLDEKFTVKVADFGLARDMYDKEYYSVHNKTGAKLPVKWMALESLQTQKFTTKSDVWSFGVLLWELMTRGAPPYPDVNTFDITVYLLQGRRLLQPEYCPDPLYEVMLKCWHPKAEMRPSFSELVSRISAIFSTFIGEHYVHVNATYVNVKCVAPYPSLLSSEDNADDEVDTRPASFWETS

[4] = biological target: RAC-alpha serine/threonine-protein kinase (Homo sapiens) (UniProt P31749); assay: Inhibition of AKT1 at 5 uM
Chain of RAC-alpha serine/threonine-protein kinase (Homo sapiens) (P31749 whole entry): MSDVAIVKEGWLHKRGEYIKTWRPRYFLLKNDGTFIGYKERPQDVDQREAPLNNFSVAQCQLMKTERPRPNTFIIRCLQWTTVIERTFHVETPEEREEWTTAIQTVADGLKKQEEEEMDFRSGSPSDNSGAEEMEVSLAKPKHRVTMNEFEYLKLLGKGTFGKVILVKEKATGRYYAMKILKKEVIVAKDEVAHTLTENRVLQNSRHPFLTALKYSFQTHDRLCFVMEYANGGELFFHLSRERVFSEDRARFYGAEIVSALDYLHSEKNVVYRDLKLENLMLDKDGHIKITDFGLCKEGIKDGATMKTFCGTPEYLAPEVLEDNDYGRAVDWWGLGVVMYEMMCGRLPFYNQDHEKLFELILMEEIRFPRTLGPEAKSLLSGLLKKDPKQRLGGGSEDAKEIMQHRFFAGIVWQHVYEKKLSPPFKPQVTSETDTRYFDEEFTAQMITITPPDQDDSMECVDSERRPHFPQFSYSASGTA

[5] = biological target: Focal adhesion kinase 1 (Homo sapiens) (UniProt Q05397); assay: Inhibition of FAK at 5 uM
Chain of Focal adhesion kinase 1 (Homo sapiens) (Q05397 2-1052 limits assumed): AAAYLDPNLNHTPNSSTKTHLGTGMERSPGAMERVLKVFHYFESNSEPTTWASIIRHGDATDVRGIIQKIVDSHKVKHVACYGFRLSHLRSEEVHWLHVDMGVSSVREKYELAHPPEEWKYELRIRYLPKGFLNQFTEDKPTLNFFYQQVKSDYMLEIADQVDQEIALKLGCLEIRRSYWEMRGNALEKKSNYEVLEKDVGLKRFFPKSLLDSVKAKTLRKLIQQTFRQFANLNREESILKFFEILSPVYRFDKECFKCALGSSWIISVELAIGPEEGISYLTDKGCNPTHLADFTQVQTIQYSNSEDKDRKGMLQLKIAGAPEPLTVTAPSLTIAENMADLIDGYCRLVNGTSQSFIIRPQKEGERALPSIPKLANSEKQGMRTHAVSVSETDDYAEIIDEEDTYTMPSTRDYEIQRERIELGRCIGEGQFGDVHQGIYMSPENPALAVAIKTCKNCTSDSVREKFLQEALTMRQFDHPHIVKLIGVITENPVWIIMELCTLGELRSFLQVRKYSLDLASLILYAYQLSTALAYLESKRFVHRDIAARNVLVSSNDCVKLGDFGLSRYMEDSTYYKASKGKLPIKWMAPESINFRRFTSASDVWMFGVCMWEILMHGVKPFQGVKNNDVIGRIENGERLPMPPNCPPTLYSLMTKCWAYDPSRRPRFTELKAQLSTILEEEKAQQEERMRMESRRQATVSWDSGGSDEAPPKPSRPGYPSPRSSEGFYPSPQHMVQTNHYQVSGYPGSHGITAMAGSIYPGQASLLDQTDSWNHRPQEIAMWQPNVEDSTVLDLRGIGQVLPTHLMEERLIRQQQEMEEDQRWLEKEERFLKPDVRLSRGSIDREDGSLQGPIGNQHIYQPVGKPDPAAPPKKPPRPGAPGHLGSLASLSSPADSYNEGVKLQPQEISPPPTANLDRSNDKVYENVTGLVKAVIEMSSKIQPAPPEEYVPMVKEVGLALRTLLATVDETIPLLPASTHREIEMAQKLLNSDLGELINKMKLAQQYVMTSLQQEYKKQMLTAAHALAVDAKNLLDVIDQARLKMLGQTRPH

[6] = biological target: Serine/threonine-protein kinase pim-1 (Homo sapiens) (UniProt P11309); assay: Inhibition of PIM1 at 5 uM
Chain of Serine/threonine-protein kinase pim-1 (Homo sapiens) (P11309 whole entry, looked up): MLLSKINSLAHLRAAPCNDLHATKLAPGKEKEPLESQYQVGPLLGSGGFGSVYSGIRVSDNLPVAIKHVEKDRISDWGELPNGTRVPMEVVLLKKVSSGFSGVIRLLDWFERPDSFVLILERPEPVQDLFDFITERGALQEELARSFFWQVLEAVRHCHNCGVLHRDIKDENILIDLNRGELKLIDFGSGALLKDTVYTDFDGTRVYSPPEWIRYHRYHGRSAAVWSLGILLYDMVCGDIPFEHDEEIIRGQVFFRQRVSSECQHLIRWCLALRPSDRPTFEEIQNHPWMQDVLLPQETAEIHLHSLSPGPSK

[7] = biological target: Epidermal growth factor receptor (Homo sapiens) (UniProt P00533); assay: Inhibition of EGFR at 1 uM
Chain of Epidermal growth factor receptor (Homo sapiens) (P00533 whole entry): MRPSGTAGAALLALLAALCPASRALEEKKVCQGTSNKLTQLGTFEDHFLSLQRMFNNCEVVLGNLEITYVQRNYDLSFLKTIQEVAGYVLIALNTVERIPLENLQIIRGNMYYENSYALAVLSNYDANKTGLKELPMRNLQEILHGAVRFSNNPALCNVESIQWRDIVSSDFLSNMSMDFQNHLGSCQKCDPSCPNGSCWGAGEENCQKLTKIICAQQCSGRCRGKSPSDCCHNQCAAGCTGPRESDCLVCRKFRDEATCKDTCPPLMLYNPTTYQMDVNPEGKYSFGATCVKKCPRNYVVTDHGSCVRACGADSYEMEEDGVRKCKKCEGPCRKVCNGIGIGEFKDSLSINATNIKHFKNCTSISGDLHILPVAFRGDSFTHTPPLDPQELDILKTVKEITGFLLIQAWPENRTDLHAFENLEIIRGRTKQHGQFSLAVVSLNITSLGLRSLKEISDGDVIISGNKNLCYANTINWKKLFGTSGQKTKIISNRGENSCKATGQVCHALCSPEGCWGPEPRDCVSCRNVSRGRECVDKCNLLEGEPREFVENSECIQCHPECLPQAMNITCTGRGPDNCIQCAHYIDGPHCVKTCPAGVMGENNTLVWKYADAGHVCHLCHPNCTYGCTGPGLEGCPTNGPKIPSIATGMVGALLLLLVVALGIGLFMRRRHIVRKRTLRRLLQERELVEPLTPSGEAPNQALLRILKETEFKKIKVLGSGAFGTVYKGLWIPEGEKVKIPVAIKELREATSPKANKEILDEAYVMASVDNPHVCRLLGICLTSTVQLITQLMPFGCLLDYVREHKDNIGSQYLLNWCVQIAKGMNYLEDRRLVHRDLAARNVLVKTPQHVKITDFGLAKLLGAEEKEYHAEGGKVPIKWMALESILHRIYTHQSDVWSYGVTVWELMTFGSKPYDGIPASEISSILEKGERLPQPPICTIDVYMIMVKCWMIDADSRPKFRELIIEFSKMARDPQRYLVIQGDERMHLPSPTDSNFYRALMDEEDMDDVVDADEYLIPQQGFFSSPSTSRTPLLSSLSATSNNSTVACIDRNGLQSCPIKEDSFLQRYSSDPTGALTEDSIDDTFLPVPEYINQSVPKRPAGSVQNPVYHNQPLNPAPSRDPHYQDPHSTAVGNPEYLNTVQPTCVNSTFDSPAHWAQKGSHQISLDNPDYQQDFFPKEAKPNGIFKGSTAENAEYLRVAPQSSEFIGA

[8] = biological target: Serine/threonine-protein kinase pim-1 (Homo sapiens) (UniProt P11309); assay: Inhibition of PIM1 at 1 uM
[9] = biological target: Serine/threonine-protein kinase PAK 1 (Homo sapiens) (UniProt Q13153); assay: Inhibition of PAK1 at 1 uM
Chain of Serine/threonine-protein kinase PAK 1 (Homo sapiens) (Q13153 whole entry): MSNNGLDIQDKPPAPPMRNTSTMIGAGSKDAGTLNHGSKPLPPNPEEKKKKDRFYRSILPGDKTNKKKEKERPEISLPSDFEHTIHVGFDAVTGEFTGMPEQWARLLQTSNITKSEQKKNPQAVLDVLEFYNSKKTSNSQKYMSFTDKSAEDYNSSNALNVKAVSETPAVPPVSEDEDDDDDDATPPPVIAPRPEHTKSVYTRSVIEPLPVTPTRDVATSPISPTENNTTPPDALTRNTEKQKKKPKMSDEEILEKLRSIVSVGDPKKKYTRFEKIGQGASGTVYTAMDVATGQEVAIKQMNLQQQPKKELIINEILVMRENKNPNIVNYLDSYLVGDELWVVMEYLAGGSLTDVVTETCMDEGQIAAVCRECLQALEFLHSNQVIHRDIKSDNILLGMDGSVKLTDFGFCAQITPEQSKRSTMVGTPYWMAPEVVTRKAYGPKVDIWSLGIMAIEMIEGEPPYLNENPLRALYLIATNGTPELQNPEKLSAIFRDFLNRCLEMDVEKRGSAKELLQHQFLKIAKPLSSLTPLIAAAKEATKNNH

[10] = biological target: Receptor-type tyrosine-protein kinase FLT3 (Homo sapiens) (UniProt P36888); assay: Inhibition of FLT3 at 1 uM
PI3K p110 beta/p85 alpha = PI3K p110 beta/p85 alpha (Homo sapiens, UniProt P42338); assay: Inhibition of human PI3Kbeta (p110beta/p85alpha) by ADP accumulation based HTRF assay; type: protein-complex assay; details: read-out: Ki(app)
[11] = biological target: Phosphatidylinositol 4,5-bisphosphate 3-kinase catalytic subunit gamma isoform (Homo sapiens, UniProt P48736); assay: Inhibition of human PI3Kgamma by ADP accumulation based HTRF assay; details: read-out: Ki(app)
[12] = biological target: PI3-kinase p110-delta/p85-alpha (Homo sapiens, UniProt O00329); assay: Inhibition of human PI3Kdelta (p110delta/p85alpha) by ADP accumulation based HTRF assay; type: protein-complex assay; details: read-out: Ki(app)
[13] = biological target: PI3-kinase p110-alpha/p85-alpha (Homo sapiens, UniProt P42336); assay: Inhibition of human PI3Kalpha (p110alpha/p85alpha) by ADP accumulation based HTRF assay; type: protein-complex assay; details: for Ki: read-out: Ki(app)
CYP3A4 = CYP3A4 (Homo sapiens, UniProt P08684); assay: Inhibition of CYP3A4 at 10 uM; type: ADME
Mus musculus [14] = assay: Antitumor activity in tamoxifen-induced mouse tumor model assessed as reduction in lung [18F]FDG uptake at 50 mg/kg/day, po for 3 weeks by PET-CT method; type: functional, organism-based
[15] = Oral bioavailability in BALB-C mouse; type: ADME, organism-based; details: in vivo
Mus musculus [16] = assay: Antitumor activity in tamoxifen-induced mouse tumor model assessed as reduction in lung metabolic activity at 50 mg/kg/day, po for 3 weeks by [18F]FDG uptake based PET-CT method; type: functional, organism-based
Mus musculus [17] = assay: Antitumor activity in tamoxifen-induced mouse tumor model assessed as tumor growth inhibition at 50 mg/kg/day, po for 3 weeks by computed tomography; type: functional; details: 504 h, read-out: GI
Mus musculus [18] = assay: In-vivo inhibition of PI3Kalpha-mediated AKT Ser 473 phosphorylation in lung of tamoxifen-induced mouse tumor model at 50 mg/kg, po measured 2 to 4 hrs post dose; type: functional
[19] = Clearance in BALB-C mouse; type: ADME, organism-based; details: in vivo
[20] = biological target: Phosphatidylinositol 4,5-bisphosphate 3-kinase catalytic subunit alpha isoform (Homo sapiens, UniProt P42336, E542K); assay: Inhibition of human PI3Kalpha E542K mutant by ADP accumulation based HTRF assay; details: read-out: Ki(app)
[21] = biological target: Phosphatidylinositol 4,5-bisphosphate 3-kinase catalytic subunit alpha isoform (Homo sapiens, UniProt P42336, E545K); assay: Inhibition of human PI3Kalpha E545K mutant by ADP accumulation based HTRF assay; details: read-out: Ki(app)
[22] = biological target: Phosphatidylinositol 4,5-bisphosphate 3-kinase catalytic subunit alpha isoform (Homo sapiens, UniProt P42336, H1047R); assay: Inhibition of human PI3Kalpha H1047R mutant by ADP accumulation based HTRF assay; details: read-out: Ki(app)

SMILES	inhibition [1] [%]	inhibition [2] [%]	inhibition [3] [%]	inhibition [4] [%]	inhibition [5] [%]	inhibition [6] [%]	inhibition [7] [%]	inhibition [8] [%]	inhibition [9] [%]	inhibition [10] [%]	Ki (PI3K p110 beta/p85 alpha) [nM]	Ki [11] [nM]	IC50 [13] [nM]	Ki [13] [nM]	inhibition at 10 µM (CYP3A4) [%]	other results
Cc1nc(N)ncc1-c1cn2cc(CN3CCN(S(C)(=O)=O)CC3)nc2c(N2CCOCC2)n1	< 30	< 30	< 30	< 30	< 30	< 30	< 30	< 30	< 30	< 30	–	–	–	–	–	–
Cc1c(CN2CCN(S(C)(=O)=O)CC2)nc2c(N3CCOCC3)nc(-c3cnc(N)nc3)cn12	< 30	< 30	< 30	< 30	< 30	< 30	< 30	< 30	< 30	< 30	202	59.8	10	10.1	< 30	Ki [12]: 15.6 nM
CS(=O)(=O)N1CCN(Cc2cn3cc(-c4cnc(N)nc4)nc(N4CCOCC4)c3n2)CC1	< 30	< 30	< 30	< 30	< 30	< 30	< 30	< 30	< 30	< 30	–	–	–	–	< 30	Activity (Mus musculus [14]): Active; bioavailability [15]: 90%; Activity (Mus musculus [16]): Active; inhibition in vivo at 50 mg/kg/day (Mus musculus [17]): 51%; inhibition in vivo at 50 mg/kg (Mus musculus [18]): > 50%; clearance [19]: 10 mL/min/kg
CS(=O)(=O)N1CCN(Cc2cn3c(Cl)c(-c4cnc(N)nc4)nc(N4CCOCC4)c3n2)CC1	< 30	< 30	< 30	< 30	< 30	< 30	< 30	< 30	< 30	< 30	212	84	–	2.4	< 30	Ki [20]: 2.77 nM; Ki [21]: 1.73 nM; Ki [22]: 3.07 nM
CS(=O)(=O)N1CCN(Cc2nc3c(N4CCOCC4)nc(-c4cnc(N)nc4)cn3c2Br)CC1	< 30	< 30	< 30	< 30	< 30	< 30	< 30	< 30	< 30	< 30	–	–	0.7	–	< 30	–
